# Article PMC7156724, “Potent BRD4 inhibitor suppresses cancer cell-macrophage interaction” (Nature Communications, 2020)
# Where “and” joins values, the source holds several entries; their conditions need not be identical. Equal values may be shown once. Read-outs that look alike come from different tables or passages of the source.
# Assays:
# A375 human melanoma = A375 human melanoma xenograft tumor growth; type: in vivo, mouse; conditions: Fig.3e, 5 Days on, 2 Days off / week x3, individual animals
# Description: PO, oral administration; QD, once daily; BID, twice daily. b–d Tumor growth curves for A2780 ovarian tumor (n = 5) (b), TMD8 large B cell lymphoma (n = 6) (c), and B16F10 melanoma (n = 5) (d) bearing mice treated with the indicated compounds once daily for 11-21 days. e, f Tumor growth curves for A375 melanoma (n = 6) (e), and patient-derived xenograft (PDX) of melanoma (n = 5) (f) bearing mice treated with the indicated compounds once daily (5 days on, 2 days off) for 21 days. For d–f, NHWD-870 used is NHWD-870-HCl synthesized using Suzuki coupling route. Data are presented as mean ± SEM in (a, b, d, f) and mean + SEM in (c, e). p values were calculated using two-tailed, unpaired t tests. *p < 0.05; **p < 0.01; ***p < 0.001. Source data are provided as a Source Data file.
# 4–6 weeks old female BALB/c nude mice were used for most experiments, with the exception of 6–8 weeks old female C57BL/6 mice were used for B16F10 experiments, and 6–8 weeks old male BALB/c nude mice and SD rats were used for pharmacokinetic experiments. All animals were purchased from Shanghai SIPPR-Bk Lab Animal Co., Ltd. All animals were housed under a regimen of 12 h light/12 h dark cycles and specific pathogen-free conditions. 5×10^6 NCI-H526, ES-2, MDA-MB231, A2780, A375, B16F10, and TMD-8 cells (0.1 ml) were injected subcutaneously into female nude mice. The melanoma patient-derived xenograft model was derived from a human melanoma sample (BRAF, NARS and NF1 wild type, and p53 mutant) removed from a patient in Xiangya Hospital. Surgically removed tumor fragments were implanted subcutaneously into female NSG mice. When the tumors grew to ~1000 mm^3, they were harvested and cryopreserved or immediately re-implanted for expansion or experiments. Mouse body weight and tumor sizes were measured every 3 days. Once the tumors grew to 150–200 mm^3, mice were treated with the compounds as described in the Figures. 1 × 10^6 A2780 cells (1 ml) were injected into the abdominal cavity of nude mice. Ascitic volume and tumor weight were measured by an electronic balance. All the procedures were evaluated and approved by the Institutional Animal Care and Use Committee of Central South University and Yale University. […]
# We apologize for not clearly labeling the experiments using compounds synthesized using Suzuki coupling method. In the revised manuscript, we modified the text to clearly mark the animal models in Fig 3d-f were tested using NHWD-870 synthesized using Suzuki […]
# compared the activity of NHWD-870 synthesized using Stille coupling route with the NHWD-870 synthesized from Suzuki coupling route (Reviewer Figure 1). […]
# activity and possible toxicity were identical.
# Reviewer Figure 1 NHWD-870 synthesized through Stille or Suzuki route has similar properties in vivo. Tumor bearing mice were treated with 2mg/kg of the indicated compounds, orally administrated once daily for 21 days. Shown are tumor growth curves (a) and body weight change (b) for A375 melanoma bearing mice. […]
# 986158 in terms of potency, but apart from with the A375 melanocyte cell line, the advance seems relatively moderate. With such similar compounds, the pharmacokinetic properties and ability to accumulate at the desired site is often more important. Figure S6d (prev. Fig. 3d) in the previous
# A375 melanoma cells = test: AlamarBlue assay, A375; type: cell-based, human; conditions: for Cellular activity in melanoma cells (A375), alamarBlue: Fig.1g, replicates; for IC50: read-out: IC50, cellular activity in A375 (alamarBlue)
# Protocol: 3. AlamarBlue assay. AlamarBlue was made by resazurin sodium salt (Sigma, Cat
# # 199303) dissolved in PBS.
# NCI-H211, MDA-MB231 and A375 cells were plated in 96-well plates at approximately 30% confluence and left overnight to adhere. In the following day, […]
# of treatment, 10 μl AlamarBlue reagent (0.3 mg/ml) was added to each well, and after 18h, the florescence intensity in each well was measured using a top-reading fluorescent plate reader with excitation at 530 nm and emission at 590 nm. […]
compound,measurement,setting,value
Cc1nnn(C)c1-c1cnc2c3c4cnn(C)c4ccc3n([C@H](c3ccccc3)C3CCOCC3)c2c1.Cl [NHWD-870-HCl],Tumor volume,"A375 human melanoma; 2 mg/kg PO QD, day 0",124.032 mm3 and 120.497 mm3 and 183.857 mm3 and 155.659 mm3 and 140.462 mm3 and 187.897 mm3
same,Tumor volume,"A375 human melanoma; 2 mg/kg PO QD, day 4",125.079 mm3 and 148.629 mm3 and 180.193 mm3 and 187.061 mm3 and 149.381 mm3 and 207.594 mm3
same,Tumor volume,"A375 human melanoma; 2 mg/kg PO QD, day 7",119.983 mm3 and 238.282 mm3 and 335.392 mm3 and 359 mm3 and 146.599 mm3 and 237.29 mm3
same,Tumor volume,"A375 human melanoma; 2 mg/kg PO QD, day 11",204.214 mm3 and 361.187 mm3 and 438.176 mm3 and 511.029 mm3 and 273.013 mm3 and 310.165 mm3
same,Tumor volume,"A375 human melanoma; 2 mg/kg PO QD, day 14",396.493 mm3 and 659.962 mm3 and 783.286 mm3 and 668.171 mm3 and 489.424 mm3 and 499.77 mm3
same,Tumor volume,"A375 human melanoma; 2 mg/kg PO QD, day 18",580.818 mm3 and 828.001 mm3 and 941.933 mm3 and 817.427 mm3 and 615.591 mm3 and 523.033 mm3
same,Tumor volume,"A375 human melanoma; 2 mg/kg PO QD, day 21",932.477 mm3 and 934.695 mm3 and 1116.85 mm3 and 993.943 mm3 and 830.361 mm3 and 759.477 mm3
same,Tumor volume,"A375 human melanoma; 3 mg/kg PO QD, day 0",187.407 mm3 and 129.823 mm3 and 123.552 mm3 and 162.978 mm3 and 197.865 mm3 and 111.638 mm3
same,Tumor volume,"A375 human melanoma; 3 mg/kg PO QD, day 4",180.115 mm3 and 100.661 mm3 and 101.808 mm3 and 169.071 mm3 and 201.772 mm3 and 81.9823 mm3
same,Tumor volume,"A375 human melanoma; 3 mg/kg PO QD, day 7",354.946 mm3 and 108.136 mm3 and 132.2 mm3 and 290.979 mm3 and 435.513 mm3 and 83.7227 mm3
same,Tumor volume,"A375 human melanoma; 3 mg/kg PO QD, day 11",333.816 mm3 and 123.623 mm3 and 211.51 mm3 and 368.326 mm3 and 511.795 mm3 and 108.132 mm3
same,Tumor volume,"A375 human melanoma; 3 mg/kg PO QD, day 14",869.938 mm3 and 282.077 mm3 and 467.223 mm3 and 627.735 mm3 and 985.207 mm3 and 153.932 mm3
same,Tumor volume,"A375 human melanoma; 3 mg/kg PO QD, day 18",947.479 mm3 and 354.935 mm3 and 602.443 mm3 and 703.598 mm3 and 1037.76 mm3 and 172.297 mm3
same,Tumor volume,"A375 human melanoma; 3 mg/kg PO QD, day 21",1152.24 mm3 and 633.313 mm3 and 890.897 mm3 and 1097.51 mm3 and 1306.53 mm3 and 328.738 mm3
same,Tumor volume,"A375 human melanoma; Group 4, 1 mg/kg PO QD, day 0",129.244 mm3 and 160.038 mm3 and 169.001 mm3
same,Tumor volume,"A375 human melanoma; Group 4, 1 mg/kg PO QD, day 4",194.913 mm3 and 185.189 mm3
same,Tumor volume,"A375 human melanoma; Group 4, 1 mg/kg PO QD, day 7",287.4 mm3 and 179.028 mm3
same,Tumor volume,"A375 human melanoma; Group 4, 1 mg/kg PO QD, day 11",471.867 mm3 and 223.232 mm3
same,Tumor volume,"A375 human melanoma; Group 4, 1 mg/kg PO QD, day 14",761.481 mm3 and 416.901 mm3
same,Tumor volume,"A375 human melanoma; Group 4, 1 mg/kg PO QD, day 18",1193.81 mm3 and 502.306 mm3
same,Tumor volume,"A375 human melanoma; Group 4, 1 mg/kg PO QD, day 21",1260.17 mm3 and 803.56 mm3 and 2033.79 mm3
CCNC(=O)C[C@@H]1N=C(c2ccc(Cl)cc2)c2cc(OC)ccc2-n2c(C)nnc21 [GSK-525762],"Cellular activity in melanoma cells (A375), alamarBlue","A375 melanoma cells; concentration(nM) 0.21442, listed as GSK-525672",0.7 and 0.7152
same,"Cellular activity in melanoma cells (A375), alamarBlue","A375 melanoma cells; concentration(nM) 0.31236, listed as GSK-525672",2.411 and 2.845
same,"Cellular activity in melanoma cells (A375), alamarBlue","A375 melanoma cells; concentration(nM) 0.4103, listed as GSK-525672",1.577 and 2.366
same,"Cellular activity in melanoma cells (A375), alamarBlue","A375 melanoma cells; concentration(nM) 0.6032, listed as GSK-525672",8.146 and 9.5447
same,"Cellular activity in melanoma cells (A375), alamarBlue","A375 melanoma cells; concentration(nM) 1.2043, listed as GSK-525672",25.5205 and 30.3178
same,"Cellular activity in melanoma cells (A375), alamarBlue","A375 melanoma cells; concentration(nM) 1.8024, listed as GSK-525672",60.9618 and 63.2464
same,"Cellular activity in melanoma cells (A375), alamarBlue","A375 melanoma cells; concentration(nM) 2.4, listed as GSK-525672",99.5135 and 98.5975
same,"Cellular activity in melanoma cells (A375), alamarBlue","A375 melanoma cells; concentration(nM) 3, listed as GSK-525672",100.155 and 100.899
same,IC50,"A375 melanoma cells; Homo sapiens, A-375, nM printed in b8, the picture prints no unit",35.6 nM
COc1cc2c(cc1-c1c(C)noc1C)ncc1[nH]c(=O)n([C@H](C)c3ccccn3)c12 [I-BET151],"Cellular activity in melanoma cells (A375), alamarBlue",A375 melanoma cells; concentration(nM) 0.21442,0.1541 and 0.2687
same,"Cellular activity in melanoma cells (A375), alamarBlue",A375 melanoma cells; concentration(nM) 0.31236,1.39 and 1.537
same,"Cellular activity in melanoma cells (A375), alamarBlue",A375 melanoma cells; concentration(nM) 0.4103,1.399 and 1.952
same,"Cellular activity in melanoma cells (A375), alamarBlue",A375 melanoma cells; concentration(nM) 0.6032,7.8413 and 3
same,"Cellular activity in melanoma cells (A375), alamarBlue",A375 melanoma cells; concentration(nM) 1.2043,31.4642 and 32.5943
same,"Cellular activity in melanoma cells (A375), alamarBlue",A375 melanoma cells; concentration(nM) 1.8024,46.9054 and 45.198
same,"Cellular activity in melanoma cells (A375), alamarBlue",A375 melanoma cells; concentration(nM) 2.4,80.0356 and 78.8893
same,"Cellular activity in melanoma cells (A375), alamarBlue",A375 melanoma cells; concentration(nM) 3,99.9805 and 100.846
same,IC50,A375 melanoma cells; nM,55.5 nM
